Results reported in patent US20100285115A1, “Novel Antiretroviral Combination” (CIPLA LIMITED, priority 2007, published 2010).

Experiments:
[1] = Stability study of Atazanavir and Ritonavir tablet; format: physicochemical
Excerpt: Stability study data of Atazanavir and Ritonavir tablet: [table]

[2] = manufactured in solid dosage form such as tablet; U.S. Pat. No. 6,458,818; cited from earlier work

Compound	Assay (%) (Limit 90-110% of Labelled amount) ([1]; 25° C./60% RH, 2 M)	Assay (%) (Limit 90-110% of Labelled amount) ([1]; 40° C./75% RH, 2 M)	Assay (%) (Limit 90-110% of Labelled amount) ([1]; Initial)	oral bioavailability [2]
COC(=O)N[C@H](C(=O)N[C@@H](Cc1ccccc1)[C@@H](O)CN(Cc1ccc(-c2ccccn2)cc1)NC(=O)[C@@H](NC(=O)OC)C(C)(C)C)C(C)(C)C [Atazanavir]	99.0%	98%	100.3%	–
CC(C)c1nc(CN(C)C(=O)N[C@H](C(=O)N[C@@H](Cc2ccccc2)C[C@H](O)[C@H](Cc2ccccc2)NC(=O)OCc2cncs2)C(C)C)cs1 [Ritonavir]	99.3%	96%	99.5%	poor
